Test results reported in US20250161290A1, “CO-CRYSTALS” (CereSpir Incorporated, priority 2021, published 2025).
In brackets after ≈: the same amount, converted by molar mass. Entries after “also recorded” stand apart in the source; their conditions may differ.

Tests used:
[1] = in vivo, cited from earlier work
[2] = XRPD of pre-exposed and post-exposed DVS samples (solid form stability); format: physicochemical; settings: two DVS sorption/desorption cycles, 5-95% RH, 25° C.
Protocol: X-ray powder diffraction analyses are obtained using a BRUKER D8 ADVANCE equipped with a Cu radiation source operated at 40 kV and 40 mA (λ=1.54 Å after Ni filtering) configured in a Bragg-Brentano geometry, equipped with a 90-position AUTO-CHANGER and a silicon strip detector (SSD160-2). A coupled theta-two theta continuous PSD (Position Sensitive Device) fast scan from 4 to 40 degrees are collected over approximately 32 minutes (0.5 sec/0.01° step). A sample is placed onto a polished zero-background silicon wafer by gently distributing onto the flat surface and is analyzed as a flat plate specimen.
(§1) Samples are analyzed using a TA Instruments Q5000SA gravimetric water sorption analyzer. The relative humidity (RH) is adjusted in 10% RH increments between 5-95% (±1% RH) at 25° C. (±0.5%° C.). The mass of a sample is continuously monitored and recorded with respect to RH and time with criteria for mass equilibrium set as a percent mass change <0.0100 for 5 minutes with a time limit of 720 minutes per step. The humidity is controlled by mixing dry and wet nitrogen streams with a total flow rate of 200 mL/min. The instrument control and data analysis are operated under Advantage for Q Series and Universal Analysis software, respectively.

[3] = Dynamic Vapor Sorption (DVS) water sorption/desorption; format: physicochemical; settings: for Mass Change: 25° C.
Protocol: as §1

[4] = Thermogravimetric analysis (TGA), degradation onset; format: physicochemical; settings: 10° C. per minute, nitrogen purge
Protocol: TGA data are collected using a TA Instruments Discovery TGA equipped with an autosampler. Typically, 2-5 mg of sample is placed in a pre-tared, Tzero aluminum pan either as a hermetically sealed pan which would be automatically punched open before sample loading for analysis, or as an open pan. A 10° C. per minute ramp rate from ambient temperature to 375° C. using a 25 mL/min nitrogen purge is used. The instrument control and data analysis are operated under TRIOS software.

[5] = Solubility assessment of CSP-1103 in organic solvents (qualitative); format: physicochemical; settings: organic solvent or mixture, thermodynamic from solid, qualitative solubility at 0.2 M, gentle heating 45° C. 1 minute if required
Protocol: The solubility assessment of CSP-1103 was then performed. Approximately 0.05 mmol of CSP-1103 was weighed out into a 1-dram vial, enough solvent was added to achieve a 0.2 M concentration, and if required, gentle heating was applied at 45° C. for 1 minute. […] After 12 hours, observations were made to determine if the API had remained in solution.

rats after TBI = settings: cited from earlier work
[6] = Consolidated qualitative solubility results (Tables 6 and 8); settings: for consolidated solubility result: Table 6; for qualitative solvent solubility overlaid with cocrystallization screens' results: Table 8, numbers are molar concentrations pending investigation
[7] = test system: patients with mild cognitive impairment (MCI); settings: listed as itanapraced, cited from earlier work
[8] = Solubility assessment of CSP-1103 in organic solvents (qualitative); format: physicochemical; settings: organic solvent or mixture, thermodynamic from solid
[9] = Coformer and CSP-1103 aqueous solubility assessment (qualitative); format: physicochemical; settings: water, thermodynamic from solid, 0.05 M aqueous concentration, gentle heating at 45° C. for 1 minute
Protocol: In a 1-dram vial, enough solvent was added to achieve a 0.05 M aqueous concentration along with some gentle heating at 45° C. for 1 minute to determine if the material would completely dissolve. After 24 hours, observations were made to determine if the material had remained in solution.

[10] = Phase 2, MCI patients, CSF / brain

For `O=C(O)C1(c2ccc(-c3ccc(Cl)c(Cl)c3)c(F)c2)CC1` [CSP-1103, 1-(3′,4′-dichloro-2-fluoro[1,1′-biphenyl]-4-yl)-cyclopropanecarboxylic acid], the oral bioavailability ([1]; po) is given as “good oral bioavailability”, the “penetration into the brain” value [1] is given as “substantial penetration into the brain” and the plasma half-life [1] is given as “long plasma half-life”. For the same compound, the “solid form change after DVS exposure (XRPD pre- vs post-exposed)” value [2] was “no solid form change”, the “solid form change after DVS exposure (XRPD pre- vs post-exposed)” value ([2]; listed as CSP) was “no solid state form changes” and the “Mass Change” value ([3]; Cycle 1 of 2, Adsorption, RH 5 to 95%) was 1.10%. For the same compound, the “Mass Change” value ([3]; Cycle 1 of 2, Desorption, RH 95 to 5%) was −1.11%, the “Mass Change” value ([3]; Cycle 2 of 2, Adsorption, RH 5 to 95%) was 1.13% and the “Mass Change” value ([3]; Cycle 2 of 2, Desorption, RH 95 to 5%) was −1.13%. The hygroscopicity classification ([3]; at 95% RH, Ph. Eur. 9.0 (slightly: <2% and ≥0.2%; non: <0.2%)) was “slightly hygroscopic”, the “average water sorbed or desorbed” value ([3]; between 5-95% RH) was 1.1±0.0% and the “degradation start by TGA” value [4] was greater than 200 °C. It also gave a solubility ([5]; MTBE) of less than 200 mM, a solubility ([5]; acetone) of less than 200 mM and a solubility ([5]; acetonitrile) of less than 200 mM. For the same compound, the solubility ([5]; ethanol) was less than 200 mM, the “accumulation of hypertrophic microglia in the injured brain” value (rats after TBI) was “prevented the accumulation of hypertrophic microglia” and the acute lung injury (rats after TBI) was “attenuated”. For the same compound, the neurological injury (rats after TBI) was “attenuated”, the solubility (physchem; MTBE, organic solvent or mixture) was 100 mM (≈ 32.5 mg/mL) and the solubility (physchem; acetonitrile, organic solvent or mixture) was less than 50 mM. For the same compound, the solubility (physchem; ethyl acetate, organic solvent or mixture) was 100 mM (≈ 32.5 mg/mL), the solubility (physchem; water) was less than 50 mM and the consolidated solubility result ([6]; MTBE) was “✓”. The “qualitative solvent solubility overlaid with cocrystallization screens' results” value (“qualitative solvent solubility overlaid” below) ([6]; acetone (BP 56° C.)) was 50 mM, the consolidated solubility result ([6]; acetone) was “✓” and the “qualitative solvent solubility overlaid” value ([6]; ethanol (BP 79° C.)) was 50 mM. For the same compound, the consolidated solubility result ([6]; ethanol) was “✓”, the consolidated solubility result ([6]; ethyl acetate) was “✓” and the “qualitative solvent solubility overlaid” value ([6]; methanol (BP 65° C.)) was 50 mM. For the same compound, the consolidated solubility result ([6]; methanol) was “✓”, the safety and tolerability ([7]; Phase 2, MCI patients treated up to two years) was “good safety and tolerability; also recorded: well tolerated” and the “TNF-α (neuroinflammatory mediator)” value [7, 10] was “beneficial dose-related CSF differences; also recorded: dose-related statistically significant reductions”. The “soluble CD40 ligand (neuroinflammatory mediator)” value [7, 10] was “beneficial dose-related CSF differences; also recorded: dose-related statistically significant reductions”, the “total tau (marker of neurodegeneration)” value [7, 10] was “beneficial dose-related CSF differences; also recorded: dose-related statistically significant reductions” and the cognitive function ([7]; throughout the duration of the trial) was “stable cognition; also recorded: stable cognitive function”. The solubility ([8]; MTBE, qualitative solubility at 0.1 M, gentle heating if required) was greater than 100 mM, the solubility ([8]; acetone, qualitative solubility at 0.05 M, gentle heating if required) was greater than 50 mM and the solubility ([8]; acetone, qualitative solubility at 0.1 M, gentle heating if required) was less than 100 mM. For the same compound, the solubility ([8]; acetonitrile, qualitative solubility at 0.05 M, gentle heating if required) was less than 50 mM, the solubility ([8]; acetonitrile, qualitative solubility at 0.1 M, gentle heating if required) was less than 100 mM and the solubility ([8]; ethanol, qualitative solubility at 0.05 M, gentle heating if required) was greater than 50 mM. The solubility ([8]; ethanol, qualitative solubility at 0.1 M, gentle heating if required) was less than 100 mM, the solubility ([8]; ethyl acetate, qualitative solubility at 0.1 M, gentle heating if required) was greater than 100 mM and the solubility ([8]; ethyl acetate, qualitative solubility at 0.2 M, gentle heating 45° C. 1 minute if required) was less than 200 mM. For the same compound, the solubility ([8]; methanol, qualitative solubility at 0.05 M, gentle heating if required) was greater than 50 mM, the solubility ([8]; methanol, qualitative solubility at 0.1 M, gentle heating if required) was less than 100 mM and the solubility ([8]; methanol, qualitative solubility at 0.2 M, gentle heating 45° C. 1 minute if required) was less than 200 mM. The solubility [9] was less than 50 mM.
